From article PMC8734228 (Cancer discovery, 2021) come the findings set out here.

Data set [1] relates to FLC PDX cells. Briefly: Validation screen on cells dissociated from FLC PDX. The class given is cell-based, human. The following applies: for Effect on FLC PDX cells in vitro (dose response, normalized percent survival): 10nM-10μM, FLC1-6; for Therapeutic window for FLC over PHH: FLC PDX cells compared with PHH; for Efficacy ranking in the screen: ranked by average −log10EC50 for FLC1-5 minus −log10EC50 for PHH.

Data set [2] deals with cells dissociated from PDX FLC1 and FLC5. As to the kind of experiment: Primary high throughput screen, 1μM, 72 h. The class given is cell-based, human. To be noted: pass = survival <60%.
For data set [3], the system named is primary human hepatocytes (PHH). As to the kind of experiment: Validation counter-screen on primary human hepatocytes. To be noted: 72 h.
Data set [4] relates to cells dissociated directly from patient tumors (FLC.T6-T11). As to the kind of experiment: Direct from patient in vitro screening. To be noted: 10μM-10nM, 72h, Cell Titer Glo. The class given is cell-based, human. (ATP-based viability assays read luminescence as a measure of living cells.)

Molecules are shown by their SMILES.

Turning to `COc1ccc(S(=O)(=O)Nc2cc(-c3c(O)ccc4ccccc34)c(O)c3ccccc23)cc1` [C188-9], the “Effect on FLC PDX cells in vitro (dose response, normalized percent survival)” value in data set [1] (72 h) is “no effect”.

Consider `CN(C)Cc1cccc(N/C(=C2\C(=O)Nc3cc(C(N)=O)ccc32)c2ccccc2)c1` [BIX02188], for which the “Result in primary screen (normalized percent survival)” value in data set [2] is “None”.

For the molecule `Cc1cc(I)ccc1Nc1c(C(=O)NOCC2CC2)cc(F)c(F)c1F` [PD198306], the “Result in primary screen (normalized percent survival)” value in data set [2] was “None”.

On to `O=C(NOC[C@H](O)CO)c1ccc(F)c(F)c1Nc1ccc(I)cc1F` [mirdametinib], for which the “Result in primary screen (normalized percent survival)” value in data set [2] is recorded as “None”.

In the case of `N#CC(=C(/N)Sc1ccccc1N)/C(C#N)=C(/N)Sc1ccccc1N` [U0126], the “Result in primary screen (normalized percent survival)” value in data set [2] is “None”.

As to `COc1cccc2cc(-c3nc([C@H]4CC[C@H](C(=O)O)CC4)n4ncnc(N)c34)[nH]c12` [OSI-027], in data set [1], the “Therapeutic window for FLC over PHH” value is “no therapeutic window”.

`C=C1C[C@@H]2[C@H](CC[C@]3(C)C(=O)CC[C@@H]23)[C@@]2(C)C=CC(=O)C=C12` [exemestane]: the “Result in primary screen (normalized percent survival)” value in data set [2] is listed as “did not pass our primary screen”.

On to `O=C1[O][Pt]2([NH][C@@H]3CCCC[C@H]3[NH]2)[O]C1=O` [oxaliplatin], for which, in data set [2], the “Result in primary screen (normalized percent survival)” value is “no to minimal activity”.

As for `N.N.O=C([O-])C1(C(=O)[O-])CCC1.[Pt+2]` [carboplatin], the “Result in primary screen (normalized percent survival)” value in data set [2] was “no to minimal activity”.

As for `O=P1(NCCCl)OCCCN1CCCl` (stereo not drawn) [ifosfamide], the “Result in primary screen (normalized percent survival)” value in data set [2] is reported as “no to minimal activity”.

In the case of `COc1cc(C[C@H]2C(=O)OC[C@@H]2Cc2ccc(OC)c(OC)c2)ccc1O` [arctigenin], the “Result in primary screen (normalized percent survival)” value in data set [2] is listed as “None”.

`CCc1c2c(nc3ccc(OC(=O)N4CCC(N5CCCCC5)CC4)cc13)-c1cc3c(c(=O)n1C2)COC(=O)[C@]3(O)CC` [irinotecan]: the “Effect on FLC PDX cells in vitro (dose response, normalized percent survival)” value in data set [1] (72 h) was “no effect”.

Consider `CN(NC(=O)CC(=O)NN(C)C(=S)c1ccccc1)C(=S)c1ccccc1` [Elesclomol], for which, in data set [1], the “Efficacy ranking in the screen” value is on record as “sixth”.

On to `COc1cc([C@@H]2c3cc4c(cc3[C@@H](O[C@@H]3O[C@@H]5CO[C@@H](C)O[C@H]5[C@H](O)[C@H]3O)[C@H]3COC(=O)[C@H]23)OCO4)cc(OC)c1O` [etoposide], for which the “Result in primary screen (normalized percent survival)” value in data set [2] was “no to minimal activity”.

As to `N#C/C(=C(/N)Sc1ccc(N)cc1)c1ccccc1C(F)(F)F` [SL-327], the “Result in primary screen (normalized percent survival)” value in data set [2] is “None”.

As usually defined, the EC50 is the midpoint of the concentration-response curve. On to `Clc1ccc(N/N=C(\c2ccccc2)c2ccccn2)nc1` [JIB-04], for which the “Effect on FLC PDX cells in vitro (dose response, normalized percent survival)” value in data set [1] (72 h) was “effective against all PDX lines”. Further, in data set [1], the “Efficacy ranking in the screen” value was “second”. In addition, the EC50 in data set [1] (read-out: EC50 against FLC PDX in vitro, across all FLC PDX lines, 72 h) is 20 to 200 nM; in data set [3] (read-out: EC50 PHH) it was over 10000 nM.

On to `CCC[C@H](NC(=O)/C(C#N)=C/c1cccc(Br)n1)c1ccccc1` [degrasyn], for which the “Result in primary screen (normalized percent survival)” value in data set [2] is on record as “did not see any effect”.

Regarding `CC(C)C[C@H](NC(=O)[C@H](Cc1ccccc1)NC(=O)c1cnccn1)B(O)O` [bortezomib], in data set [2], the “Result in primary screen (normalized percent survival)” value is recorded as “did not see any effect”.

For `COc1ccc(-c2nc(N3CCOCC3)c3sc(CN(C)c4ncc(C(=O)NO)cn4)cc3n2)cn1` [fimepinostat], in data set [1] (72 h), the “Effect on FLC PDX cells in vitro (dose response, normalized percent survival)” value was “affected FLC1,3,4”. Moreover, the “Efficacy ranking in the screen” value in data set [1] is 22.

As to `O=c1[nH]cc(F)c(=O)[nH]1` [fluorouracil], the “Result in primary screen (normalized percent survival)” value in data set [2] is “no to minimal activity”.

Take `N#Cc1ccc(C2CCCc3cncn32)cc1` (stereo not drawn) [fadrozole]: the “Result in primary screen (normalized percent survival)” value in data set [2] is on record as “did not pass our primary screen”.

As to `CC(=O)O/N=C1\C(=O)N(Cc2cc(Cl)ccc2Cl)c2ccc(Cl)cc21` [LDN-57444], the “Result in primary screen (normalized percent survival)” value in data set [2] is on record as “did not see any effect”.

Turning to `CC1(C)CCC(c2ccc(Cl)cc2)=C(CN2CCN(c3ccc(C(=O)NS(=O)(=O)c4ccc(N[C@H](CCN5CCOCC5)CSc5ccccc5)c(S(=O)(=O)C(F)(F)F)c4)cc3)CC2)C1` [navitoclax], the entries for the “Efficacy ranking in the screen” value in data set [1] and in data set [1] (listed as Navitoclax) were “fifth” and 5, respectively.

Take `Cn1cnc2c(F)c(Nc3ccc(Br)cc3F)c(C(=O)NOCCO)cc21` [binimetinib]: the “Result in primary screen (normalized percent survival)” value in data set [2] was “None”.

For the molecule `Cc1c(CN2CCN(C(=O)[C@H](C)O)CC2)sc2c(N3CCOCC3)nc(-c3cnc(N)nc3)nc12` [GDC0980], the “Therapeutic window for FLC over PHH” value in data set [1] is “no therapeutic window”.

Take `CC(=O)c1cc([N+](=O)[O-])c(Sc2cccc(Cl)c2Cl)s1` [P5091]: the “Efficacy ranking in the screen” value in data set [1] is on record as 38.

`Cc1cc(OCc2nnc(SC3CCCC3)n2-c2cccnc2)ccc1-c1ccc(S(C)(=O)=O)cc1` [NMS873]: the “Efficacy ranking in the screen” value in data set [1] is on record as 72.

With `CC(C)C[C@H](NC(=O)CNC(=O)c1cc(Cl)ccc1Cl)B(O)O` [ixazomib], the “Result in primary screen (normalized percent survival)” value in data set [2] is listed as “did not see any effect”.

`CNC(=O)Nc1ccc(-c2nc(N3CC4CCC(C3)O4)c3cnn(C4CCC5(CC4)OCCO5)c3n2)cc1` [WYE-125132]: the “Therapeutic window for FLC over PHH” value in data set [1] is recorded as “no therapeutic window”.

Turning to `CC1(C)C=C(CN2C/C(=C\c3ccc(F)cc3)C(=O)/C(=C/c3ccc(F)cc3)C2)C(C)(C)N1O` [HO3867], the “Effect on FLC PDX cells in vitro (dose response, normalized percent survival)” value in data set [1] (72 h) is listed as “no effect”.

`CC(C)(C)OC(=O)N[C@H]1CCCCC/C=C\[C@@H]2C[C@@]2(C(=O)NS(=O)(=O)C2CC2)NC(=O)[C@@H]2C[C@@H](OC(=O)N3Cc4cccc(F)c4C3)CN2C1=O` [danoprevir]: in data set [2], the “Result in primary screen (normalized percent survival)” value is “did not see any effect”.

With `CN(C)Cc1cccc(N/C(=C2\C(=O)Nc3cc(C(=O)N(C)C)ccc32)c2ccccc2)c1` [BIX02189], in data set [2], the “Result in primary screen (normalized percent survival)” value is given as “None”.

With `CONC(=O)[C@H]1[C@@H](O)[C@@]2(O)c3c(OC)cc(OC)cc3O[C@@]2(c2ccc(OC)cc2)[C@@H]1c1ccccc1` [CR-1-31-B], in data set [3] (up to 10 μM), the “Effect on PHH (dose response, normalized percent survival)” value was “no effect”. Also, the “Sensitivity of cells tested directly from patients” value in data set [4] is on record as “sensitive”.

For `COc1ccc(C[C@H](NC(=O)[C@H](C)NC(=O)CN2CCOCC2)C(=O)N[C@@H](Cc2ccccc2)C(=O)C2(C)CO2)cc1` (stereo in doubt) [ONX-0914], the “Result in primary screen (normalized percent survival)” value in data set [2] is “did not see any effect”.

For `Cn1c(=O)c(F)c(Nc2ccc(I)cc2F)c2c(=O)n(C[C@@H](O)CO)cnc21` [TAK-733], the “Result in primary screen (normalized percent survival)” value in data set [2] was “None”.

Turning to `CC(C)C[C@H](NC(=O)CNC(=O)c1cc(Cl)ccc1Cl)B1OC(=O)C(CC(=O)O)(CC(=O)O)O1` [MLN9708], in data set [2], the “Result in primary screen (normalized percent survival)” value was “did not see any effect”.

With `COc1cc(Nc2ncc3c(n2)-c2ccc(Cl)cc2C(c2c(F)cccc2OC)=NC3)ccc1C(=O)O` [alisertib], the “Effect on FLC PDX cells in vitro (dose response, normalized percent survival)” value in data set [1] (72 h) is “no effect”.

For `CC(C)(C#N)c1cc(Cn2cncn2)cc(C(C)(C)C#N)c1` [anastrozole], the “Result in primary screen (normalized percent survival)” value in data set [2] is on record as “did not pass our primary screen”.

Consider `C[C@]12CCC(=O)C(O)=C1CC[C@@H]1[C@@H]2CC[C@]2(C)C(=O)CC[C@@H]12` [formestane], for which the “Result in primary screen (normalized percent survival)” value in data set [2] is on record as “did not pass our primary screen”.

On to `CNC(=O)c1cc(Oc2ccc(NC(=O)Nc3ccc(Cl)c(C(F)(F)F)c3)cc2)ccn1` [Sorafenib], for which, in data set [1], the “Therapeutic window for FLC over PHH” value is reported as “no therapeutic window”.

As for `Cn1cnc2c(F)c(Nc3ccc(Br)cc3Cl)c(C(=O)NOCCO)cc21` [selumetinib], the “Result in primary screen (normalized percent survival)” value in data set [2] was “None”.

For the molecule `C#Cc1cccc(Nc2ncnc3cc(OCCOC)c(OCCOC)cc23)c1` [Erlotinib], in data set [1] (72 h), the “Effect on FLC PDX cells in vitro (dose response, normalized percent survival)” value was “no effect”.

As for `N.N.[Cl][Pt][Cl]` [cisplatin], the “Result in primary screen (normalized percent survival)” value in data set [2] is reported as “no to minimal activity”.

`Cc1cc(C(=O)NOCCO)c(Nc2ccc(I)cc2F)n(C)c1=O` [AZD8330]: the “Result in primary screen (normalized percent survival)” value in data set [2] is reported as “None”.

In the case of `Nc1ccn([C@@H]2O[C@H](CO)[C@@H](O)C2(F)F)c(=O)n1` [gemcitabine], the “Result in primary screen (normalized percent survival)” value in data set [2] is “no to minimal activity”.

Consider `CNC(=O)c1cc(Oc2ccc(NC(=O)Nc3ccc(Cl)c(C(F)(F)F)c3)c(F)c2)ccn1` [regorafenib], for which the “Therapeutic window for FLC over PHH” value in data set [1] is “no therapeutic window”.

Regarding `CNC(=O)c1cccc(-c2ccc3c(N4CCOC[C@@H]4C)nc(N4CCOC[C@@H]4C)nc3n2)c1` [AZD2014], in data set [1], the “Therapeutic window for FLC over PHH” value is “no therapeutic window”.

For `O=C(c1ccc(F)c(F)c1Nc1ccc(I)cc1F)N1CC(O)([C@@H]2CCCCN2)C1` [cobimetinib], the “Result in primary screen (normalized percent survival)” value in data set [2] was “None”.

With `COc1ccc(-c2ccc3ncc4c(c3c2)n(-c2ccc(N3CCNCC3)c(C(F)(F)F)c2)c(=O)n4C)cn1` [NVP-BGT226], the “Effect on FLC PDX cells in vitro (dose response, normalized percent survival)” value in data set [1] (72 h) is on record as “potency against all FLC PDX”.

For the molecule `N#Cc1ccc(C(c2ccc(C#N)cc2)n2cncn2)cc1` [letrozole], in data set [2], the “Result in primary screen (normalized percent survival)” value is “did not pass our primary screen”.

Regarding `O=C(NC[C@H](O)CO)c1ccncc1Nc1ccc(I)cc1F` [pimasertib], the “Result in primary screen (normalized percent survival)” value in data set [2] is “None”.

Consider `COc1cccc(-c2cc(=O)c3ccccc3o2)c1N` [PD98059], for which the “Result in primary screen (normalized percent survival)” value in data set [2] was “None”.

Turning to `CC(C)C[C@H](NC(=O)[C@@H](NC(=O)c1cccc(-c2ccccc2)n1)[C@@H](C)O)B(O)O` [delanzomib], the “Result in primary screen (normalized percent survival)” value in data set [2] is listed as “did not see any effect”.

`O=C(NOCC1CC1)c1ccc(F)c(F)c1Nc1ccc(I)cc1Cl` [PD184352]: the “Result in primary screen (normalized percent survival)” value in data set [2] is reported as “None”.
